Source: patent US8932997B2, “Anti-accretion agents for drilling fluids” (Lamberti SpA, priority 2008, dated 2015)

How the values were obtained:
[1] = Anti-accretion test (hot roll cells with steel bars and shale chips); conditions: additive amount per 350 ml test fluid as in fluid description; 50 g Arne clay chips; rolled 30 minutes at room temperature
Skeletonema costatum = assay: Marine algal growth inhibition test (ISO/DP 10253); type: cell-based; conditions: concentrations 0.1 to 100.0 mg/l seawater
Experimental: The test was carried out according the ISO protocol ISO/DP 10253—Water quality—Marine algal growth inhibition test with Skeletonema costatum and Phaeodactylum tricornutum.
A culture of the marine algae Skeletonema costatum was exposed to a series of test concentrations of Additive 1 In addition to a control test, concentrations ranging from 0.1 to 100.0 mg/I seawater were tested. The test lasted for 72 hours, and EC50 (72 hours) was calculated to be higher than 10.0 mg/litre.

Compound	accretion % (wt % of shale accreted on metal surface) [1]	EC50 (72 hours) algal growth inhibition (Skeletonema costatum)
[Cl-].[K+] [KCl, potassium chloride, reference compound]	>70%	–
triethanolamine trioleate [Additive 1]	10%	higher than 10.0 mg/litre
